Source: patent publication US8114406B2, “Peptides and their utility in modulation of behavior of cells expressing α3β1 integrins” (The United States of America as represented by the …, priority 1999, dated 2012)
Where no end group is shown, it is not given here.

How the values were obtained:
BAE cells = experiment: Scratch wound repair of BAE cells; type: cell-based, bovine; conditions: cells arrested using 5-fluorouracil; 24 h
Method: BAE cells were seeded at a density of 2×10^5 cells/well of 6 well tissue culture plates in complete growth medium supplemented with 10% FBS. After the cells formed a confluent cobblestone, cells were arrested using 10 μg/ml 5-fluorouracil for 48 h. Scrape wounds of 2 mm, width were made in the wells, and the cells were further incubated with medium containing 10% FBS, 10 μg/ml 5 fluorouracil and peptides 678, 709, or 690. Measurements of the distance between the wound margins were taken at 0 and 24 h, and the net migration is expressed as mean±SEM for triplicates.
The in vitro wound healing assay used was a slight modification of that described by Joyce et al. (Joyce et al., 1989). A confluent monolayer of BAE cells pretreated with 10 μg/ml 5-fluorouracil for […] were used in this assay. […] Mitosis of the BAE cells in the monolayers was inhibited by addition of 5-fluorouracil, so that the rate of wound closure was due solely to the migration of cells into the wound sites. The distances between the wound margins were measured as soon as the wound was made and 24 hours later using a grid incorporated into the eye piece of the microscope. All data represent the results obtained from three independent scratch wounds for each peptide tested.

HUVEC = HUVEC spreading on coated substrates; type: cell-based, human; conditions: for percent spread HUVEC on immobilized substrate: data not shown
Method: FIGS. 14A, 14B and 14C display α3β1 and αvβ3 integrin-mediated spreading of endothelial cells on thrombospondin-1. […] Results are expressed as percent of the response for untreated cells, mean±S.D., n=3.
Adhesion assays of cells other than small cell lung carcinoma (SCLC)-Adhesion was measured on polystyrene or glass substrates coated with peptides or proteins as previously described (Guo et al., 1992). Peptides dissolved in PBS at 0.4 to 50 μM were incubated in polystyrene microliter plate wells overnight at 4° C. The wells were washed 3 times with distilled water. Adsorbed peptide was quantified using the BCA assay (Pierce Chemical) measuring absorbance at 570 and 630 nm as described by the supplier's protocol. The assay for adsorption was calibrated using purified peptide in solution as a standard. After blocking with 1% BSA in Dulbecco's PBS, adhesion assays were performed by adding cells suspended in DMEM (BAE cells) or medium 199 (human cells) containing 1 mg/ml BSA. Cell attachment and spreading was quantified microscopically.

FQGVLQNVRFVF [Peptide 678]
inhibition of BAE cell migration into the wound (BAE cells): dose-dependent inhibitor
inhibition of HUVEC spreading on vitronectin (HUVEC): not significantly inhibited
inhibition of HUVEC spreading on TSP1 (HUVEC; 20 μM peptide 678 (FIG. 14B)): 70±7%
percent spread HUVEC on immobilized substrate (HUVEC; confluent cells): 3±1%
percent spread HUVEC on immobilized substrate (HUVEC; sparse cultures): 12±3%
